According to US7238813B2, “Chemical compounds” (Smithkline Beecham Corporation, priority 2000, dated 2007):
Counter-ions that a name gives are not always drawn.

Assays:
[1] = molecular target: T1, TIE2 intracellular domain/c-fms extracellular domain (TIE2/c-fms) chimeric protein expressing mouse 3T3 cells (Homo sapiens, UniProt Q02763); assay: TIE-2 autophosphorylation assay (TIE2-C), ELISA; type: cell-based; settings: TIE2/c-fms 3T3 cells, MCSF activation
T1 construct: a TIE2 intracellular domain/c-fms extracellular domain (TIE2/c-fms) chimeric protein; expressed in transfected cells; host or cells: mouse 3T3 cells
Outline: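 Mouse 3T3 cells expressing TIE2 intracellular/c-fms extracellular chimera treated with compound for 1 hr in serum-free DMEM (0.1% DMSO), then stimulated with MCSF. Lysates captured on anti-c-fms plates overnight at 4 °C; phosphotyrosine detected by biotin-PT66/HRP-streptavidin, OD450. IC50 by nonlinear regression, reported as pIC50.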

[2] = molecular target: T2, GST-TIE2 (intracellular domains of human TIE2) (Homo sapiens, UniProt Q02763); assay: TIE-2 enzyme assay (TIE2-E), LANCE method; type: biochemical; settings: 80 uM ATP
T2 construct: made in house
Outline: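 Baculovirus GST-TIE2 (human intracellular domain, aa 762–1104) preactivated 30 min at RT with 2 mM ATP, then reacted 30 min at RT with 1 μM D1-15 peptide, 80 uM ATP, 10 mM MgCl2, pH 7.4, 2.4% DMSO. EDTA-stopped; LANCE Eu-anti-pTyr/streptavidin-APC read-out. IC50 by nonlinear regression, reported as pIC50.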

[3] = molecular target: T3, GST-VEGFR2 (Homo sapiens, UniProt P35968); assay: VEGF-R2 enzyme assay (VEGF-E), LANCE method; type: biochemical; settings: 75 μM ATP
T3 construct: GST-VEGFR2, baculovirus expressed recombinant constructs of the intracellular domains of human TIE2 tagged by GST; made in house

[4] = system: Human umbilical cord endothelial cells (HUVEC); assay: VEGF-driven cellular proliferation assay: BrdU incorporation assay (VEGF-C); type: cell-based; parameters: key to VEGF-C: + = pIC50 of 5.0–6.0; ++ = pIC50 of 6.0–7.0; +++ = pIC50 of > 7.0; − = a negative or inconclusive result; settings: for IC50: Homo sapiens
Outline: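 HUVEC (≤6 passages) were plated at 5000 cells/well and exposed to compound 30 min in serum-free M199 containing 0.6% DMSO. Medium with 20 ng/ml VEGF was then added for 24 h, followed by a 24 h pulse with 10 μM BrdU and ELISA read at 450 nm. IC50 from nonlinear regression of percent inhibition was expressed as pIC50.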

T3 sequence (P35968 786-1356 limits assumed): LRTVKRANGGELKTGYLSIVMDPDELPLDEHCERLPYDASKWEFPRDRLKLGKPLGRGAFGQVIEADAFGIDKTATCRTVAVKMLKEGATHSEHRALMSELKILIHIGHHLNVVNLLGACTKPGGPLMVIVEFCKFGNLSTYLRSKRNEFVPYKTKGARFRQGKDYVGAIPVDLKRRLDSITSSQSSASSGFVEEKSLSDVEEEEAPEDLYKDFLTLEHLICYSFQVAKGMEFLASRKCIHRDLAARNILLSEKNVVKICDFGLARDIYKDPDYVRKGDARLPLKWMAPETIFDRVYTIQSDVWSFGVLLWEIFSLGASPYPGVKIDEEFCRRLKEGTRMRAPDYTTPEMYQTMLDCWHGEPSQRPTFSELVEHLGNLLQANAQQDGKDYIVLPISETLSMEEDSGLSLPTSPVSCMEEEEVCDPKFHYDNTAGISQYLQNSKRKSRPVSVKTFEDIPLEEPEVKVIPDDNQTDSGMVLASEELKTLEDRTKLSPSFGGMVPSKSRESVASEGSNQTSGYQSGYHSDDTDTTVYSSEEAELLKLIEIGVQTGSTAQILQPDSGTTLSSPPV
T1 sequence (Q02763 770-1124 limits assumed, change not shown): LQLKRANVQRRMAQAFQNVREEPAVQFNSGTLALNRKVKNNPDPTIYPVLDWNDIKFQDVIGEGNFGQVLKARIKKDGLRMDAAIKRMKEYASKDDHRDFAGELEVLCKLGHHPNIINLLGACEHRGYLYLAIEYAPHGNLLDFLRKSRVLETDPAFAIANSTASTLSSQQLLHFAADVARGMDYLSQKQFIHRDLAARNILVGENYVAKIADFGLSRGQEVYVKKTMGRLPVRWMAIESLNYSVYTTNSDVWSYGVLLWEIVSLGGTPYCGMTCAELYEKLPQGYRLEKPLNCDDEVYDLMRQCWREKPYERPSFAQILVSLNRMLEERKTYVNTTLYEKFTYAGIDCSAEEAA
T2 sequence (Q02763 762-1104): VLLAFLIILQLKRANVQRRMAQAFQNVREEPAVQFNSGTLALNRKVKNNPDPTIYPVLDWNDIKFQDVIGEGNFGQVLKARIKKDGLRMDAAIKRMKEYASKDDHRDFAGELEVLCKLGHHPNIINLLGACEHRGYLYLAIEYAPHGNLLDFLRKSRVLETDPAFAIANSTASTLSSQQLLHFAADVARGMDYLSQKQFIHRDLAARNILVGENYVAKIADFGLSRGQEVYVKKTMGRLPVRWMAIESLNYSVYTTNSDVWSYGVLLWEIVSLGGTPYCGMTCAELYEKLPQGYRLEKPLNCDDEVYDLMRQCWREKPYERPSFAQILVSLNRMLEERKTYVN

| IC50 [1] [nM] | IC50 [2] [nM] | IC50 [3] [nM] | SMILES | IC50 [4] [nM] | VEGF-C [4] |
| --- | --- | --- | --- | --- | --- |
| 100 to 1000 | < 100 | < 100 | O=C(Nc1ccc(Oc2ccc3[nH]c(NC(=O)C4CCCC4)nc3c2)cc1)Nc1cc(C(F)(F)F)ccc1F [Example 26, N-(5-(4-((2-Fluoro-5-(trifluoromethyl)phenyl)aminocarbonylamino)phenoxy)-1H-benzimidazol-2-yl)cyclopentamide] | 100 to 1000 |  |
| < 100 | < 100 | < 100 | COC(=O)Nc1nc2cc(Oc3ccc(NC(=O)Nc4cc(C(F)(F)F)ccc4Cl)cn3)ccc2[nH]1 [Example 111, Methyl-N-(5-(5-((2-chloro-5-(trifluoromethyl)phenyl)aminocarbonylamino)-2-pyridyloxy)-1H-benzimidazol-2-yl)carbamate] |  | − |
| < 100 | < 100 | < 100 | COC(=O)Nc1nc2ccc(Oc3ccc(NC(=O)Nc4cc(C(F)(F)F)ccc4Cl)cc3)nc2[nH]1 [Example 72, Methyl N-(5-(4-((2-chloro-5-(trifluoromethyl)phenyl)aminocarbonylamino)phenoxy)-3,4-diaza-1H-indole-2-yl)carbamate dihydrochloride] | 1000 to 10000 |  |
| < 100 | < 100 | < 100 | CC(C)CCC(=O)Nc1nc2cc(Oc3ccc(NC(=O)Nc4cc(C(F)(F)F)ccc4F)cc3)ccc2[nH]1 [Example 28, N-(5-(4-((2-Fluoro-5-(trifluoromethyl)phenyl)aminocarbonylamino)phenoxy)-1H-benzimidazol-2-yl)-4-methylpentamide] | 100 to 1000 |  |
| < 100 | < 100 | < 100 | O=C(CCc1cccnc1)Nc1nc2cc(Oc3ccc(NC(=O)Nc4cc(C(F)(F)F)ccc4F)cc3)ccc2[nH]1 [Example 88, N-(5-(4-((2-Fluoro-5-(trifluoromethyl)phenyl)aminocarbonylamino)phenoxy)-1H-benzimidazol-2-yl)-3-(pyridine-3-yl)propionamide] | < 100 |  |
| < 100 | < 100 | < 100 | Cn1cnc(CC(=O)Nc2nc3cc(Oc4ccc(NC(=O)Nc5cc(C(F)(F)F)ccc5F)cc4)ccc3[nH]2)c1 [Example 97, N-(5-(4-((2-Fluoro-5-(trifluoromethyl)phenyl)aminocarbonylamino)phenoxy)-1H-benzimidazol-2-yl)(1methyl-1H-imidazol-4-yl)acetamide] | < 100 |  |
| < 100 | < 100 | < 100 | CC(=O)NCC(=O)Nc1nc2cc(Oc3ccc(NC(=O)Nc4cc(C(F)(F)F)ccc4F)cc3)ccc2[nH]1 [Example 29, N-(5-(4-((2-Fluoro-5-(trifluoromethyl)phenyl)aminocarbonylamino)phenoxy)-1H-benzimidazol-2-yl)-2-(N-acetylamino)acetamide] | 100 to 1000 |  |
| < 100 | < 100 | < 100 | COCCOCCOCC(=O)Nc1nc2ccc(Oc3ccc(NC(=O)Nc4cc(C(F)(F)F)ccc4F)cc3)cc2[nH]1 [Example 33, N-(5-(4-((2-Fluoro-5-(trifluoromethyl)phenyl)aminocarbonylamino)phenoxy)-1H-benzimidazol-2-yl)(2-(2-(methoxy)ethoxy)ethoxy)acetamide] | < 100 |  |
| < 100 | < 100 | < 100 | COC(=O)Nc1cn2cc(Oc3ccc(NC(=O)Nc4cc(C(F)(F)F)ccc4F)cc3)ccc2n1 [Example 68, Methyl N-(5-(4-((2-fluoro-5-(trifluoromethyl)phenyl)aminocarbonylamino)phenoxy)-3a-aza-2-indolyl)carbamate] | < 100 |  |
| < 100 | < 100 | < 100 | COC(=O)Nc1nc2cc(Oc3ccc(NC(=O)Nc4cc(C(F)(F)F)ccc4Cl)cc3)ccc2[nH]1 [Example 43] | 1000 to 10000 |  |
| < 100 | < 100 | < 100 | COCC(=O)Nc1nc2cc(Oc3ccc(NC(=O)Nc4cc(C(F)(F)F)ccc4F)cc3)ccc2[nH]1 [Example 31, N-(5-(4-((2-Fluoro-5-(trifluoromethyl)phenyl)aminocarbonylamino)phenoxy)-1H-benzimidazol-2-yl)-2-methoxyacetamide] | < 100 |  |
| < 100 | < 100 | < 100 | O=C(Nc1ccc(Oc2ccc3[nH]c(NC(=O)c4ccc5[nH]cnc5c4)nc3c2)cc1)Nc1cc(C(F)(F)F)ccc1F [Example 89, N-(5-(4-((2-Fluoro-5-(trifluoromethyl)phenyl)aminocarbonylamino)phenoxy)-1H-benzimidazol-2-yl)-5-benzimidazolecarboxamide] | 100 to 1000 |  |
| 100 to 1000 | < 100 | < 100 | COC(=O)Nc1nc2cc(Oc3ccc(NC(=O)Nc4cccc(Cl)c4)cc3)ccc2[nH]1 [Example 1, Methyl N-(5-(4-((3-chlorophenyl)aminocarbonylamino)phenoxy)-1H-benzimidazol-2-yl)carbamate] |  | − |
| < 100 | < 100 | < 100 | CN(C)CCCC(=O)Nc1nc2cc(Oc3ccc(NC(=O)Nc4cc(C(F)(F)F)ccc4F)cc3)ccc2[nH]1 [Example 92, N-(5-(4-((2-Fluoro-5-(trifluoromethyl)phenyl)aminocarbonylamino)phenoxy)-1H-benzimidazol-2-yl)-4-(dimethylamino)butylamide] | < 100 |  |
| < 100 | < 100 | < 100 | NCC(=O)Nc1nc2cc(Oc3ccc(NC(=O)Nc4cc(C(F)(F)F)ccc4F)cc3)ccc2[nH]1 [Example 30, N-(5-(4-((2-Fluoro-5-(trifluoromethyl)phenyl)aminocarbonylamino)phenoxy)-1H-benzimidazol-2-yl)-2-aminoacetamide dihydrochloride] | 100 to 1000 |  |
| < 100 | < 100 | < 100 | COC(=O)Nc1nc2cc(Oc3ccc(NC(=O)Nc4cc(C)ccc4F)cc3)ccc2[nH]1.Cl [Example 55, Methyl N-(5-(4-((2-fluoro-5-methylphenyl)aminocarbonylamino)phenoxy)-1H-benzimidazol-2-yl)carbamate hydrochloride] |  | − |
| < 100 | 100 to 1000 | < 100 | COC(=O)Nc1nc2cc(Oc3ccc(NC(=O)Nc4cc(F)ccc4F)cc3)ccc2[nH]1 [Example 56, Methyl N-(5-(4-((2,5-difluorophenyl)aminocarbonylamino)phenoxy)-1H-benzimidazol-2-yl)carbamate] |  | − |
| 100 to 1000 | < 100 | < 100 | COC(=O)Nc1nc2cc(Oc3ccc(NC(=O)Nc4ccc(Cl)c(C(F)(F)F)c4)cc3)ccc2[nH]1 [Example 44, Methyl N-(5-(4-((4-chloro-3-(trifluoromethyl)phenyl)aminocarbonylamino)phenoxy)-1H-benzimidazol-2-yl)carbamate] |  | − |
| < 100 | < 100 | < 100 | COC(=O)Nc1nc2cc(Oc3ccc(NC(=O)Nc4cccc(C(F)(F)F)c4)cc3)ccc2[nH]1 [Example 19, Methyl N-(5-(4-((3-(trifluoromethyl)phenyl)aminocarbonylamino)phenoxy)-1H-benzimidazol-2-yl)carbamate] |  | − |
